{"source": "patent US5583108A", "about": "“Vasonatrin peptide and analogs thereof” (Mayo Foundation for Medical Education and Research, priority 1994, dated 1996)", "key": {"[1]": {"system": "normal rats", "experiment": "Cardiorenal actions after intravenous bolus in anesthetized normal rats", "assay_type": "in vivo, Wistar rats", "conditions": "for MAP mean arterial pressure / HR heart rate / RAP right atrial pressure / UKV urine potassium excretion / UNaV urine sodium excretion / UV urine volume / UcGMPV urine cGMP volume / PcGMP plasma cGMP: mean ± SEM; for MAP mean arterial pressure: n = 4", "procedure": "(§1) The results obtained are expressed as the means ±SEM. In organ chamber studies, n equals the number of dogs from which rings were taken. Rings with and without endothelium were studied in parallel, and Student's t-test for unpaired observations was used to determine statistical significance among the responses of rings with and without endothelium and between responses of arteries and veins. In rat studies, the data were analyzed using ANOVA for repeated measures followed by Fisher's least significant difference test when appropriate within the group. Data between groups were analyzed by Student's unpaired t-test. Statistical significance was determined at p<0.05.\nExperiments were conducted in accordance with the Animal Welfare Act. Wistar rats and spontaneously hypertensive rats (SHR) (400 g; Harlan Sprague-Dawley, Indianapolis, Ind.) were anesthetized with Inactin (100 mg/kg; intraperitoneal; BYK Gulden, Konstanz, Germany). The body temperature was maintained between 36° and 38° C. by a heating pad. Tracheostomy was performed; however, the animals were not artificially ventilated. Polyethylene catheters (PE-50; Becton Dickinson Co., Parsippany, N.J.) were placed in the left Jugular vein for infusions of saline and drugs, in the right jugular vein to right atrium to monitor right atrial pressure, and in the carotid artery for the collection of blood samples and to monitor mean arterial pressure. A PE-90 catheter was placed in the bladder for urine collection.\nExperiments were conducted in three groups in normal rats: ANP group (n=4), CNP group (n=4), and VNP group (n=4). VNP also was studied in SHR rats (n=4). Intravenous infusions of saline solution (0.9% NaCl) were performed (1 ml/100 gm body weight/hr) through the left jugular vein catheter. After completion of surgery, rats were allowed to stabilize for 30 minutes. In each group, a 15-min baseline period followed. After the baseline period, saline solution (0.9% NaCl) was administered in a bolus fashion (0.1 ml) and was followed by a 15-min period. After the saline period, the peptide (ANP, CNP or VNP) was administered in a bolus fashion (0.1 ml) at 5 μg/kg which was followed by a 15-min period. This was followed by a second bolus (0.1 ml) at 50 μg/kg and a 15-min period. After a 30-min washout, a 15-min recovery period followed. During each experimental period, mean arterial pressure (MAP), heart rate (HR), and right atrial pressure (RAP) were measured. At the midpoint of baseline, second bolus fashion (50 μg/kg) and recovery periods, blood was sampled for plasma cGMP. At the end of each period, urine was measured for volume (UV), and samples were stored for electrolytes and cGMP analysis.\nBlood for plasma cGMP analysis was collected into EDTA tubes, immediately placed on ice, and centrifuged at […] at 4° C. Plasma was separated and stored at -20° C. until assay. Urine for cGMP determination was heated to >90° C. before storage. Plasma and urine cGMP were determined by a specific RIA as previously described by A. L. Steiner et al., J. Hypertension, 5 (Suppl. 5) 551-553 (1987)."}, "[2]": {"system": "isolated normal canine blood vessels", "experiment": "Organ chamber isometric force: relaxation of phenylephrine-contracted vessel rings", "design": "species or system dog", "conditions": "for relaxation: maximal dose (3×10^-6 M); for maximal response, percent change in tension from a contraction to phenylephrine: peptide 3 × 10^-6 M, mean ± SEM", "procedure": "as §1\nRings cut from femoral, saphenous, renal and pulmonary arteries and veins obtained from random source mongrel dogs (anesthetized with 30 mg/kg pentobarbital sodium intravenously) were suspended for the measurement of isometric force in organ chambers filled with aerated (95% O2 and 5% CO2) modified Krebs-Ringer bicarbonate solution (composition in mM: 118.3 NaCl, 4.7 KCl, 2.5 CaCl2, 1.2 MgSO4, 1.2 KH2 PO4, 25.0 NaHCO3, 0.026 calcium sodium EDTA, and 11.1 dextrose; control solution) at 37° C. In one-half rings, the endothelium was removed by gently rubbing the intimal surface with a cotton swab wetted with control solution. Each ring was stretched to the optimal point on its length-tension curve as determined by the tension developed to norepinephrine (3×10^-7 M) at each level of stretch. The presence of endothelium was determined at the beginning of the experiment by a relaxation to acetylcholine (10^-6 M) during a contraction to norepinephrine at optimal length. The maximal tension of each ring was determined by norepinephrine (10^-4 M). To study responses to ANP, CNP and VNP, the rings were contracted with phenylephrine (10^-6 M). These contractions averaged 30-40% of the maximal contraction to norepinephrine. The peptides were added cumulatively once the contraction had stabilized.\nThe following commercially available drugs were used: acetylcholine chloride (Sigma Chemical, St. Louis, Mo.), human ANP and human CNP (Peninsula Laboratories, Belmont, Calif.), L-norepinephrine bitartrate (Sigma), phenylephrine bitartrate (Sigma). All drugs were dissolved in distilled water immediately prior to study, and the concentrations are reported as the final molar concentration (M) in the organ chamber."}, "[3]": {"conditions": "normal rats, high dose (50 μg/kg) bolus"}}, "data": [{"smiles": "CC[C@H](C)[C@@H]1NC(=O)[C@H](CCCNC(=N)N)NC(=O)[C@H](CC(=O)O)NC(=O)[C@H](CCSC)NC(=O)[C@H](CCCNC(=N)N)NC(=O)CNC(=O)CNC(=O)[C@H](Cc2ccccc2)NC(=O)[C@@H](NC(=O)[C@H](CO)NC(=O)[C@H](CO)NC(=O)[C@H](CCCNC(=N)N)NC(=O)[C@H](CCCNC(=N)N)NC(=O)[C@H](CC(C)C)NC(=O)[C@@H](N)CO)CSSC[C@@H](C(=O)N[C@@H](CC(N)=O)C(=O)N[C@@H](CO)C(=O)N[C@@H](Cc2ccccc2)C(=O)N[C@@H](CCCNC(=N)N)C(=O)N[C@@H](Cc2ccc(O)cc2)C(=O)O)NC(=O)CNC(=O)[C@H](CC(C)C)NC(=O)CNC(=O)[C@H](CO)NC(=O)[C@H](CCC(N)=O)NC(=O)[C@H](C)NC(=O)CNC1=O", "note": "[ANP, atrial natriuretic peptide]", "values": [{"measurement": "natriuretic action (in words)", "setting": "[1]; in vivo, rat", "value": "potent natriuretic"}, {"measurement": "change in MAP and RAP (in words)", "setting": "[1]; [3]", "value": "significant decrease"}, {"measurement": "change in urine flow, sodium excretion, plasma cGMP and urinary cGMP volume (in words)", "setting": "[1]; [3]", "value": "increased"}, {"measurement": "MAP mean arterial pressure", "setting": "[1]; normal rats, iv bolus 5 μg/kg, 15-min period", "value": "97 ± 12", "unit": "mmHg"}, {"measurement": "HR heart rate", "setting": "[1]; normal rats, iv bolus 5 μg/kg", "value": "353 ± 14", "unit": "beats/min"}, {"measurement": "RAP right atrial pressure", "setting": "[1]; normal rats, iv bolus 5 μg/kg", "value": "-2.3 ± 0.8", "unit": "mmHg"}, {"measurement": "UKV urine potassium excretion", "setting": "[1]; normal rats, iv bolus 5 μg/kg", "value": "10.3 ± 3.5", "unit": "µmol/min"}, {"measurement": "UNaV urine sodium excretion", "setting": "[1]; normal rats, iv bolus 5 μg/kg", "value": "13.2 ± 3.5", "unit": "µmol/min"}, {"measurement": "UV urine volume", "setting": "[1]; normal rats, iv bolus 5 μg/kg", "value": "79 ± 10", "unit": "µL/min"}, {"measurement": "UcGMPV urine cGMP volume", "setting": "[1]; normal rats, iv bolus 5 μg/kg", "value": "605 ± 151", "unit": "pmol/min"}, {"measurement": "HR heart rate", "setting": "[1]; normal rats, iv bolus 50 μg/kg", "value": "355 ± 19", "unit": "beats/min"}, {"measurement": "PcGMP plasma cGMP", "setting": "[1]; normal rats, iv bolus 50 μg/kg", "value": "25.7 ± 7.1", "unit": "pmol/mL"}, {"measurement": "RAP right atrial pressure", "setting": "[1]; normal rats, iv bolus 50 μg/kg", "value": "-3.8 ± 0.8", "unit": "mmHg"}, {"measurement": "UKV urine potassium excretion", "setting": "[1]; normal rats, iv bolus 50 μg/kg", "value": "24.4 ± 8.7", "unit": "µmol/min"}, {"measurement": "UNaV urine sodium excretion", "setting": "[1]; normal rats, iv bolus 50 μg/kg", "value": "68.2 ± 15.7", "unit": "µmol/min"}, {"measurement": "UV urine volume", "setting": "[1]; normal rats, iv bolus 50 μg/kg", "value": "341 ± 41", "unit": "µL/min"}, {"measurement": "UcGMPV urine cGMP volume", "setting": "[1]; normal rats, iv bolus 50 μg/kg", "value": "2580 ± 505", "unit": "pmol/min"}, {"measurement": "MAP mean arterial pressure", "setting": "[1]; normal rats, recovery period after 30-min washout", "value": "92 ± 11", "unit": "mmHg"}, {"measurement": "HR heart rate", "setting": "[1]; normal rats, recovery period", "value": "368 ± 23", "unit": "beats/min"}, {"measurement": "PcGMP plasma cGMP", "setting": "[1]; normal rats, recovery period", "value": "3.2 ± 0.3", "unit": "pmol/mL"}, {"measurement": "RAP right atrial pressure", "setting": "[1]; normal rats, recovery period", "value": "-0.8 ± 0.9", "unit": "mmHg"}, {"measurement": "UKV urine potassium excretion", "setting": "[1]; normal rats, recovery period", "value": "2.4 ± 0.1", "unit": "µmol/min"}, {"measurement": "UNaV urine sodium excretion", "setting": "[1]; normal rats, recovery period", "value": "8.9 ± 3.5", "unit": "µmol/min"}, {"measurement": "UV urine volume", "setting": "[1]; normal rats, recovery period", "value": "48 ± 14", "unit": "µL/min"}, {"measurement": "UcGMPV urine cGMP volume", "setting": "[1]; normal rats, recovery period", "value": "105 ± 63", "unit": "pmol/min"}, {"measurement": "MAP mean arterial pressure", "setting": "[1]; normal rats, second iv bolus 50 μg/kg, 15-min period", "value": "69 ± 7", "unit": "mmHg"}, {"measurement": "relaxation", "setting": "[2]; femoral and saphenous arteries", "value": "no effects"}, {"measurement": "maximal response, percent change in tension from a contraction to phenylephrine", "setting": "[2]; femoral artery, with endothelium, phenylephrine 10^-6 M", "value": "10 ± 5", "unit": "%"}, {"measurement": "maximal response, percent change in tension from a contraction to phenylephrine", "setting": "[2]; femoral artery, without endothelium", "value": "19 ± 12", "unit": "%"}, {"measurement": "maximal response, percent change in tension from a contraction to phenylephrine", "setting": "[2]; femoral vein, with endothelium", "value": "6 ± 3", "unit": "%"}, {"measurement": "maximal response, percent change in tension from a contraction to phenylephrine", "setting": "[2]; femoral vein, without endothelium", "value": "4 ± 4", "unit": "%"}, {"measurement": "relaxation", "setting": "[2]; femoral veins", "value": "no effect"}, {"measurement": "maximal response, percent change in tension from a contraction to phenylephrine", "setting": "[2]; pulmonary artery, with endothelium", "value": "60 ± 7", "unit": "%"}, {"measurement": "maximal response, percent change in tension from a contraction to phenylephrine", "setting": "[2]; pulmonary artery, without endothelium", "value": "75 ± 8", "unit": "%"}, {"measurement": "maximal response, percent change in tension from a contraction to phenylephrine", "setting": "[2]; pulmonary vein, with endothelium", "value": "49 ± 5", "unit": "%"}, {"measurement": "maximal response, percent change in tension from a contraction to phenylephrine", "setting": "[2]; pulmonary vein, without endothelium", "value": "16 ± 3", "unit": "%"}, {"measurement": "maximal response, percent change in tension from a contraction to phenylephrine", "setting": "[2]; renal artery, with endothelium", "value": "27 ± 6", "unit": "%"}, {"measurement": "maximal response, percent change in tension from a contraction to phenylephrine", "setting": "[2]; renal artery, without endothelium", "value": "30 ± 6", "unit": "%"}, {"measurement": "maximal response, percent change in tension from a contraction to phenylephrine", "setting": "[2]; renal vein, with endothelium", "value": "12 ± 3", "unit": "%"}, {"measurement": "maximal response, percent change in tension from a contraction to phenylephrine", "setting": "[2]; renal vein, without endothelium", "value": "11 ± 4", "unit": "%"}, {"measurement": "maximal response, percent change in tension from a contraction to phenylephrine", "setting": "[2]; saphenous artery, with endothelium", "value": "0 ± 0", "unit": "%"}, {"measurement": "maximal response, percent change in tension from a contraction to phenylephrine", "setting": "[2]; saphenous artery, without endothelium", "value": "3 ± 3", "unit": "%"}, {"measurement": "maximal response, percent change in tension from a contraction to phenylephrine", "setting": "[2]; saphenous vein, with endothelium", "value": "0 ± 0", "unit": "%"}, {"measurement": "maximal response, percent change in tension from a contraction to phenylephrine", "setting": "[2]; saphenous vein, without endothelium", "value": "0 ± 0", "unit": "%"}, {"measurement": "relaxation", "setting": "[2]; saphenous veins", "value": "no effect"}, {"measurement": "relaxation, % of the contraction to phenylephrine", "setting": "[2]; systemic arteries (femoral, saphenous and renal)", "value": "less than 30%"}]}]}
